The target in one assay is T1, MKNK1 (Homo sapiens, UniProt Q9BUB5, T385D).
T1 construct: GST (N); purchased Carna Biosciences 02-145; host or cells: insect cells (baculovirus expression system)
T1 sequence (Q9BUB5 1-424 isoform Q9BUB5-2 T344D): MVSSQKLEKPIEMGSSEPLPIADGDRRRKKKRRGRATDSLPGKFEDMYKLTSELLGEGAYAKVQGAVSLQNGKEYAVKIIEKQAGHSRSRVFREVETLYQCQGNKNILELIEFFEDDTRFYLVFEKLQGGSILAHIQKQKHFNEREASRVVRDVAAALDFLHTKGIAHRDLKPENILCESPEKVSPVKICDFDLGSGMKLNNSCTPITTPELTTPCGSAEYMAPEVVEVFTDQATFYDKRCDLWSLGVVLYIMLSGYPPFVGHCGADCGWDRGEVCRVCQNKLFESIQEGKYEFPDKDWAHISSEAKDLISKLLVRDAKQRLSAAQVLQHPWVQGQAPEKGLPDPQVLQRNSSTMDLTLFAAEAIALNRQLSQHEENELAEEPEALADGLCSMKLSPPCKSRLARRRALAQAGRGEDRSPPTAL
Description: MKNK1 kinase high ATP assay (TR-FRET-based). As to conditions: Table 2c; 2 mM ATP, 15 min preincubation. Type of assay: biochemical. The method, then: MKNK1 Kinase High ATP Assay
MKNK1-inhibitory activity at high ATP of compounds of the present invention after their preincubation with MKNK1 was quantified employing the TR-FRET-based MKNK1 high ATP assay as described in the following paragraphs.
A recombinant fusion protein of Glutathione-S-Transferase (GST, N-terminally) and human full-length MKNK1 (amino acids 1-424 and T344D of accession number BAA 19885.1), expressed in insect cells using baculovirus expression system and purified via glutathione sepharose affinity chromatography, was purchased from Carna Biosciences (product no 02-145) and used as enzyme. As substrate for the kinase reaction the biotinylated peptide biotin-Ahx-IKKRKLTRRKSLKG (C-terminus in amide form) was used, which can be purchased e.g. from the company Biosyntan (Berlin-Buch, Germany).
For the assay 50 nL of a 100 fold concentrated solution of the test compound in DMSO was pipetted into a black low volume 384 well microtiter plate (Greiner Bio-One, Frickenhausen, Germany), 2 μL of a solution of MKNK1 in aqueous assay buffer [50 mM HEPES pH 7.5, 5 mM magnesium chloride, 1.0 mM dithiothreitol, 0.005% (v/v) Nonidet-P40 (Sigma)] was added and the mixture was incubated for 15 min at 22° C. to allow pre-binding of the test compounds to the enzyme before the start of the kinase reaction. Then the kinase reaction was started by the addition of 3 μL of a solution of adenosine-tri-phosphate (ATP, 3.3 mM=>final conc. in the 5 μL assay volume is 2 mM) and substrate (0.1 μM=>final conc. in the 5 μL assay volume is 0.06 μM) in assay buffer and the resulting mixture was incubated for a reaction time of 30 min at 22° C. The concentration of MKNK1 was adjusted depending of the activity of the enzyme lot and was chosen appropriate to have the assay in the linear range, typical concentrations were in the range of 0.003 μg/mL. The reaction was stopped by the addition of 5 μL of a solution of TR-FRET detection reagents (5 nM streptavidine-XL665 [Cisbio Bioassays, Codolet, France] and 1 nM anti-ribosomal protein S6 (pSer236)-antibody from Invitrogen [#44921G] and 1 nM LANCE EU-W1024 labeled ProteinG [Perkin-Elmer, product no. AD0071]) in an aqueous EDTA-solution (100 mM EDTA, 0.1% (w/v) bovine serum albumin in 50 mM HEPES pH 7.5).
The resulting mixture was incubated for 1 h at 22° C. to allow the formation of complex between the phosphorylated biotinylated peptide and the detection reagents. Subsequently the amount of phosphorylated substrate was evaluated by measurement of the resonance energy transfer from the Eu-chelate to the streptavidine-XL. Therefore, the fluorescence emissions at 620 nm and 665 nm after excitation at 350 nm were measured in a TR-FRET reader, e.g. a Rubystar (BMG Labtechnologies, Offenburg, Germany) or a Viewlux (Perkin-Elmer). The ratio of the emissions at 665 nm and at […] was taken as the measure for the amount of phosphorylated substrate. The data were normalised (enzyme reaction without inhibitor=0% inhibition, all other assay components but no enzyme=100% inhibition).
On the technique in general: Time-resolved FRET reads energy transfer from a long-lived donor to a nearby acceptor.
A word on the IC50: it is the concentration needed to halve the response being measured. As to `C[C@@H]1COCCN1c1nccc2oc(-c3cnc4ccc(OC[C@H]5CCC(=O)N5)nn34)cc12` [III-79, (5R)-5-{[(3-{4-[(3R)-3-Methylmorpholin-4-yl]furo[3,2-c]pyridin-2-yl}imidazo[1,2-b]pyridazin-6-yl)oxy]methyl}pyrrolidin-2-one], the IC50 is 0.7 nM.

`C[C@H]1COCCN1c1nccc2oc(-c3cnc4ccc(OC[C@H]5CCC(=O)N5)nn34)cc12` [III-84, (5R)-5-{[(3-{4-[(3S)-3-Methylmorpholin-4-yl]furo[3,2-c]pyridin-2-yl}imidazo[1,2-b]pyridazin-6-yl)oxy]methyl}pyrrolidin-2-one]: the IC50 is 0.5 nM.

The compound `C[C@H]1COCCN1c1nccc2oc(-c3cnc4ccc(OC[C@@H]5CCC(=O)N5)nn34)cc12` [III-87, (5S)-5-{[(3-{4-[(3S)-3-Methylmorpholin-4-yl]furo[3,2-c]pyridin-2-yl}imidazo-[1,2-b]pyridazin-6-yl)oxy]methyl}pyrrolidin-2-one] registered an IC50 of 3.7 nM.

As for `C[C@H]1CN(c2nccc3oc(-c4cnc5ccc(OC[C@@H]6CCC(=O)N6)nn45)cc23)CCO1` [III-88, (5S)-5-{[(3-{4-[(2S)-2-Methylmorpholin-4-yl]furo[3,2-c]pyridin-2-yl}imidazo-[1,2-b]pyridazin-6-yl)oxy]methyl}pyrrolidin-2-one], the midpoint of inhibition, the IC50, lay at 4.2 nM.

On to `COc1ccc2ncc(-c3cc4c(N5CCOC[C@H]5C)nccc4o3)n2n1` [III-92, 6-Methoxy-3-{4-[(3R)-3-methylmorpholin-4-yl]furo[3,2-c]pyridin-2-yl}imidazo[1,2-b]pyridazine], for which half-maximal inhibition (IC50) required 3.2 nM.

Compound `COc1ccc2ncc(-c3cc4c(N5CCOC[C@@H]5C)nccc4o3)n2n1` [III-93, 6-Methoxy-3-{4-[(3S)-3-methylmorpholin-4-yl]furo[3,2-c]pyridin-2-yl}imidazo[1,2-b]pyridazine] displayed an IC50 of 5.6 nM. Against the preceding compound, the IC50 is about 1.7-fold higher.

For the compound `COc1ccc2ncc(-c3cc4c(N5CCO[C@@H](C)C5)nccc4o3)n2n1` [III-94, 6-Methoxy-3-{4-[(2S)-2-methylmorpholin-4-yl]furo[3,2-c]pyridin-2-yl}imidazo[1,2-b]pyridazine], the IC50 worked out at 4 nM.

In turn, `C[C@H]1COCCN1c1nccc2oc(-c3cnc4ccc(O[C@H]5C[C@H](N)C5)nn34)cc12` [III-109, trans-3-[(3-{4-[(3S)-3-Methylmorpholin-4-yl]furo[3,2-c]pyridin-2-yl}imidazo[1,2-b]pyridazin-6-yl)oxy]cyclobutanamine] gave an IC50 of 5.2 nM.

Compound `C[C@H]1CN(c2nccc3oc(-c4cnc5ccc(O[C@H]6C[C@H](N)C6)nn45)cc23)CCO1` [III-110, trans-3-[(3-{4-[(2S)-2-Methylmorpholin-4-yl]furo[3,2-c]pyridin-2-yl}imidazo[1,2-b]pyridazin-6-yl)oxy]cyclobutanamine] showed an IC50 of 10.4 nM.

`C[C@@H]1CN(c2nccc3oc(-c4cnc5ccc(OCC(F)(F)F)nn45)cc23)CCN1` [III-127, 3-{4-[(3R)-3-methylpiperazin-1-yl]furo[3,2-c]pyridin-2-yl}-6-(2,2,2-trifluoroethoxy)imidazo [1,2-b]pyridazine] yielded an IC50 of 4.2 nM.

The assay is the same for the next values; noted with them: Table 2d; 2 mM ATP, 15 min preincubation.
As for `O=C1CC[C@H](COc2ccc3ncc(-c4cc5c(OCC6CC6)nccc5o4)n3n2)N1` [IV-12, (5R)-5-[({3-[4-(Cyclopropylmethoxy)furo[3,2-c]pyridin-2-yl]imidazo[1,2-b]-pyridazin-6-yl}oxy)methyl]pyrrolidin-2-one], half-maximal inhibition (IC50) was put at 7 nM.
